Reference: paper PMC11249637, “Interaction of the Atypical Tetracyclines Chelocardin and Amidochelocardin with Renal Drug Transporters” (ACS Pharmacology & Translational Science, 2024)

Assays:
mOat1 = molecular target: T1, mOat1 (Mus musculus, UniProt Q8VC69); assay: Three-point uptake (substrate assessment) in mOat1-overexpressing HEK293 cells; format: in vitro ADME; details: 10 μM compound, 100 μM probenecid, 1 and 5 min
T1 construct: expressed in transfected cells; host or cells: HEK293
T1 sequence (Q8VC69 1-545): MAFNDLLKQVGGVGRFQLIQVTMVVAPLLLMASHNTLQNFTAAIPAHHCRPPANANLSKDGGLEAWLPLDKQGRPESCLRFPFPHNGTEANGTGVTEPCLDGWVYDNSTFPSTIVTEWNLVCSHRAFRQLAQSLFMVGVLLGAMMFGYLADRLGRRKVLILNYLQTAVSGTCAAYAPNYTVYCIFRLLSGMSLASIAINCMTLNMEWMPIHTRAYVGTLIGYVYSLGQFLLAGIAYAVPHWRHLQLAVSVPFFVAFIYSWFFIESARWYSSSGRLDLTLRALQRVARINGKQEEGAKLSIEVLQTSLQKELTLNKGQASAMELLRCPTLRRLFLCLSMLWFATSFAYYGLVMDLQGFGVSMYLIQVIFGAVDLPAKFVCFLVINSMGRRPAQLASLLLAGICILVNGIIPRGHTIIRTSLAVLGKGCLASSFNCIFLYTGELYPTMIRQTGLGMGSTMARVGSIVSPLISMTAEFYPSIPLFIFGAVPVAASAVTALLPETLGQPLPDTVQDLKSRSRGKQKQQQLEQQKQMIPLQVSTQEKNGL
Method: This is important to gain a better understanding of the underlying mechanisms of secretion into urine. Therefore, we assessed the amount of compound taken up by the vector and transporter cells at three different concentrations (1, 10, and 100 μM for mOat1 and mOct1; 0.1, 1, and 10 μM for mOat3) and at two different incubation periods (1 and 5 min for mOat1 and mOct1; 5 and 10 min for mOat3).
The incubation buffer contained CHD and CDCHD in a final concentration of 1, 10, and 100 μM. After 1 and 5 min, the incubation was terminated. In addition, the probe inhibitor probenecid (100 μM) was added in one concentration to 10 μM CHD and CDCHD, respectively, and after 1 and 5 min, the incubation was stopped. Inhibition of mOat1-mediated ^3H-PAH (10 μM) uptake by 100 μM probenecid was performed as a control experiment. After 1 min, the incubation was terminated. […]
First, a calibration curve was prepared by spiking different concentrations of CHD and CDCHD into the cell matrix. […] Samples were analyzed using an Agilent 1290 Infinity II HPLC system coupled to an AB Sciex QTrap6500plus mass spectrometer. […]
For statistical testing of differences in uptake ratio or for the inhibitory effect, an ordinary one-way ANOVA test was performed using GraphPad Prism 9.5.1 software. […] Michaelis–Menten kinetics were determined using the Michaelis–Menten algorithm of GraphPad Prism 9.5.1 software. […]

[1] = parameters: method as in PMID 38047701; details: 15 mg/kg IV; up to 8 h post administration; cited from earlier work

What does the source list for `CC(=O)C1=C(O)[C@@H](N)[C@H]2Cc3c(c(O)c4c(O)c(C)ccc4c3C)C(=O)[C@@]2(O)C1=O` [CHD, chelocardin]?
uptake ratio (cells without vs with probenecid), mOat1 (mOat1): < 1; urine levels of CHD compared to CDCHD [1]: 10 fold
